Values quoted from earlier work as cited in US7931880B2, “Production of silver sulfate grains using inorganic additives” (Eastman Kodak Company, priority 2007, dated 2011).

Assays:
Pseudomonas aeruginosa = settings: in polymethylmethacrylate bone cement at 0.5% concentration
Staphylococcus aureus = settings: in polymethylmethacrylate bone cement at 0.5% concentration
Escherichia coli = settings: in polymethylmethacrylate bone cement at 0.5% concentration

| Molecule | Additive Silver Solubility (silver salt of the additive anion) [g/100 mL] | Additive Sulfate Solubility (sulfate salt of the additive cation) [g/100 mL] | inhibition of bacterial growth (Pseudomonas aeruginosa) | inhibition of bacterial growth (Staphylococcus aureus) | inhibition of bacterial growth (Escherichia coli) |
| --- | --- | --- | --- | --- | --- |
| [Na+].[Na+].[O]=[W](=[O])([O-])[O-] [Na2WO4, sodium tungstate] | 0.0070 | 7.7 |  |  |  |
| [Cl][Ag] [Silver chloride] |  |  | significantly inhibit | significantly inhibit | significantly inhibit |
| O=S(=O)([O-])[O-].[Ag+].[Ag+] [silver sulfate] |  |  | significantly inhibit | significantly inhibit | significantly inhibit |
| silver oxide |  |  | significantly inhibit | significantly inhibit | significantly inhibit |
